Reference: US10221163B2 (priority 2015, dated 2019)
Read-outs that look alike come from different tables or passages of the source.

Key:
[1] = tested on: Pseudomonas aeruginosa MB9798 vs MB9799
Method in brief: (§1)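 PAO1 pair, broth microdilution; fixed β-lactam (imipenem/ceftazidime) at ~CLSI breakpoint + fixed class A/C BLI for AmpC; serial MBLi titration; endpoint = MBLi conc. restoring susceptibility; MB9798:MB9799 ratio = efflux liability.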

NDM-1 = NDM-1 (Klebsiella pneumoniae, UniProt C7C422); test: biochemical; format: biochemical; conditions: fluorescence assay, CCF2-FA substrate, 1 pM enzyme, 2 hours at 25° C.; read-out: NDM-1 IC50
Method in brief: (§2)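 Two-hour, 25° C incubation of enzyme with inhibitor and CCF2-FA (7-hydroxycoumarin–cephalosporin–fluorescein). Fluorescence read-out; IC50 via 4-parameter fit.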

IMP-1 = IMP-1 (Serratia marcescens, UniProt P52699); test: biochemical; format: biochemical; conditions: fluorescence assay, CCF2-FA substrate, 2 pM enzyme, 2 hours at 25° C.; read-out: IMP-1 IC50
Method in brief: as §2

VIM-1 = VIM-1 (Pseudomonas aeruginosa (strain ATCC 15692 / DSM 22644 / CIP 104116 / JCM 14847 / LMG 12228 / 1C / PRS 101 / PAO1), UniProt A0A0F7KYQ8); test: biochemical; conditions: CCF2-FA substrate, 30 pM enzyme, 2 hours at 25° C.
Method in brief: as §2

[2] = tested on: Pseudomonas aeruginosa efflux− (MB9799), IMP-1; format: cell-based; conditions: C, D serine β-lactamase inhibitor closely related to relebactam; for P. aeruginosa expressing IMP-1, efflux − (MB9799) MITC95: concentration restoring susceptibility to imipenem at 2 μg/mL in the presence of a class A
Method in brief: as §1

[3] = tested on: Pseudomonas aeruginosa efflux+ (MB9798), IMP-1; format: cell-based; design: Concentration of metallo-β-lactamase inhibitor which restores susceptibility of efflux + (MB9798) strain to imipenem: unit not given here; conditions: C, D serine β-lactamase inhibitor closely related to relebactam; for P. aeruginosa expressing IMP-1, efflux + (MB9798) MITC95: concentration restoring susceptibility to imipenem at 2 μg/mL in the presence of a class A
Method in brief: as §1

[4] = tested on: Escherichia coli expressing NDM-1 (CLB30005, CLB30016); format: cell-based; conditions: with imipenem 1 μg/ml; for Escherichia coli expressing NDM-1 (CLB30016) MITC95: 95% inhibition of bacterial growth; for Escherichia coli MITC95: NDM-1 strain, 95% inhibition of growth
Method in brief: (§3)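 Imipenem 1 μg/ml + inhibitor; MBL-expressing clinical strains in 1.1×CAMHB, inoculum from saline suspension diluted 1:100; 35° C, 22–24 h; absorbance read-out.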

[5] = tested on: Klebsiella pneumoniae expressing VIM-1 (IHMA599644); format: cell-based; conditions: for Klebsiella pneumoniae expressing VIM-1 (IHMA599644) MITC95: with imipenem 1 μg/ml, 95% inhibition of bacterial growth; for Klebsiella pneumoniae MITC95: VIM-1 strain IHMA599644, with imipenem 1 μg/ml, 95% inhibition of growth
Method in brief: as §3

[6] = tested on: Serratia marcescens expressing IMP-1 (CL5741); format: cell-based; conditions: for Serratia marcescens expressing IMP-1 (CL5741) MITC95: with imipenem 1 μg/ml, 95% inhibition of bacterial growth; for Serratia marcescens MITC95: IMP-1 strain CL5741, with imipenem 1 μg/ml, 95% inhibition of growth
Method in brief: as §3

[7] = ratio MITC95 PA_9798/MITC95 PA_9799
[8] = fluorescence assay, read-out: VIM-1 IC50

Sequence of NDM-1 (C7C422 whole entry, looked up, species assumed): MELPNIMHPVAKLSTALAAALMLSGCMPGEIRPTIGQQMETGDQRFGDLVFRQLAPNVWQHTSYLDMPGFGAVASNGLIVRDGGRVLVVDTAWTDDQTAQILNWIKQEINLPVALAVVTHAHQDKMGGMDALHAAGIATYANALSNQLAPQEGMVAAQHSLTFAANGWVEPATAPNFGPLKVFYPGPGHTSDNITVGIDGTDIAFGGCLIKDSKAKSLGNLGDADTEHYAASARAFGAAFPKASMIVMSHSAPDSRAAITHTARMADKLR
Sequence of IMP-1 (P52699 whole entry, looked up, species assumed): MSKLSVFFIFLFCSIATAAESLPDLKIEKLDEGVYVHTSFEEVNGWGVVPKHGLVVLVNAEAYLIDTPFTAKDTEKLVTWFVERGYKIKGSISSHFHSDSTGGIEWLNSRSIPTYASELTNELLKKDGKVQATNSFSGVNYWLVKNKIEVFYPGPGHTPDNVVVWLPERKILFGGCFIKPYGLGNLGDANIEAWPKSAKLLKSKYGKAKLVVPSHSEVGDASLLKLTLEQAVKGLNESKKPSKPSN

| Compound | Efflux ratio [1, 7] | IC50 (NDM-1) | IC50 (IMP-1) | IC50 (VIM-1; [8]) | P. aeruginosa expressing IMP-1, efflux − (MB9799) MITC95 [2] | P. aeruginosa expressing IMP-1, efflux + (MB9798) MITC95 [3] | Escherichia coli expressing NDM-1 (CLB30016) MITC95 [4] | Klebsiella pneumoniae expressing VIM-1 (IHMA599644) MITC95 [5] | Serratia marcescens expressing IMP-1 (CL5741) MITC95 [6] | Escherichia coli MITC95 [4] | Klebsiella pneumoniae MITC95 [5] | Serratia marcescens MITC95 [6] | Efflux ratio ([1]; fold difference between efflux+ (MB9798) and efflux− (MB9799) strains, imipenem at 2 μg/mL) | Concentration of metallo-β-lactamase inhibitor which restores susceptibility of efflux − (MB9799) strain to imipenem ([2]; efflux− MB9799, imipenem at 2 μg/mL, in the presence of a class A) | Concentration of metallo-β-lactamase inhibitor which restores susceptibility of efflux + (MB9798) strain to imipenem ([3]; efflux+ MB9798, imipenem at 2 μg/mL, in the presence of a class A) | IC50 (VIM-1; VIM-1 IC50, fluorescence assay) |
| --- | --- | --- | --- | --- | --- | --- | --- | --- | --- | --- | --- | --- | --- | --- | --- | --- |
| NS(=O)(=O)c1c(S(=O)(=O)N[C@H]2C[C@H](N)C2)ccc(-c2cccc3[nH]cnc23)c1-c1nn[nH]n1 [Example 200, N^1-((1r,3r)-3-aminocyclobutyl)-4-(1H-benzo[d]imidazol-4-yl)-3-(2H-tetrazol-5-yl)benzene-1,2-disulfonamide] | 1.00 | 0.0527 nM | 0.276 nM | 0.114 nM | 0.7813 µM | 0.7813 µM | 1.563 µM | 3.125 µM | 1.563 µM | – | – | – | – | – | – | – |
| Nc1nc2c(-c3ccc(S(=O)(=O)NCCC(N)C(F)(F)F)c(S(N)(=O)=O)c3-c3nnn[nH]3)cccc2s1 (stereo not drawn) [Example 49, 4-(2-amino-1,3-benzothiazol-4-yl)-N1-(3-amino-4,4,4-trifluorobutyl)-3-(1H-tetrazol-5-yl)benzene-1,2-disulfonamide] | 8.00 | 0.0673 nM | 0.413 nM | 0.328 nM | 6.25 µM | 50 µM | 25 µM | 25 µM | 12.5 µM | – | – | – | – | – | – | – |
| NS(=O)(=O)c1c(S(=O)(=O)N[C@@H]2CCNC2)ccc(-c2cnc3ccccn23)c1-c1nnn[nH]1 [Example 140, (R)-4-(imidazo[1,2-a]pyridin-3-yl)-N1-(pyrrolidin-3-yl)-3-(1H-tetrazol-5-yl)benzene-1,2-disulfonamide] | 2.00 | 0.0867 nM | 0.779 nM | 0.111 nM | 0.7813 µM | 1.563 µM | 0.7813 µM | 1.563 µM | 1.563 µM | – | – | – | – | – | – | – |
| CC[C@H](CN)NS(=O)(=O)c1ccc(-c2cccc3[nH]c(N)nc23)c(-c2nn[nH]n2)c1S(N)(=O)=O [Example 265, (R)-4-(2-amino-1H-benzo[d]imidazol-4-yl)-N1-(1-aminobutan-2-yl)-3-(2H-tetrazol-5-yl)benzene-1,2-disulfonamide] | 1.00 | 0.0241 nM | 0.292 nM | 0.0927 nM | 0.7813 µM | 0.7813 µM | – | – | – | 1.563 µM | 1.563 µM | 0.7813 µM | – | – | – | – |
| NCCNS(=O)(=O)c1ccc(-c2cccc(NC(=O)[C@@H](N)CN)c2)c(-c2nn[nH]n2)c1S(N)(=O)=O [Example 453, (S)-2,3-Diamino-N-(4′-(N-(2-aminoethyl)sulfamoyl)-3′-sulfamoyl-2′-(2H-tetrazol-5-yl)-[1,1′-biphenyl]-3-yl)propanamide] | – | 0.87 nM | 3.52 nM | 0.244 nM | – | – | – | – | – | 1.563 µM | 3.125 µM | 3.125 µM | 2.00 | 1.563 | 3.125 | – |
| Nc1ccc(-c2ccc(S(=O)(=O)NC[C@@]3(N)CCNC3)c(S(N)(=O)=O)c2-c2nn[nH]n2)cn1 [Example 369, (R)-4-(6-aminopyridin-3-yl)-N1-((3-aminopyrrolidin-3-yl)methyl)-3-(2H -tetrazol-5-yl)benzene-1,2-disulfonamide] | 1.00 | 0.276 nM | 0.508 nM | – | 1.563 µM | 1.563 µM | – | – | – | 0.3906 µM | 3.125 µM | 0.7813 µM | – | – | – | 0.302 nM |
| Nc1nc2c(-c3ccc(S(=O)(=O)NC4CCNCC4)c(S(N)(=O)=O)c3-c3nnn[nH]3)cccc2s1 [Example 32, 4-(2-amino-1,3-benzothiazol-4-yl)-N1-piperidin-4-yl-3-(1H-tetrazol-5-yl)benzene-1,2-disulfonamide] | 0.50 | 0.069 nM | 0.34 nM | – | 1.563 µM | 0.7813 µM | 6.25 µM | 3.125 µM | 1.563 µM | – | – | – | – | – | – | 0.296 nM |
| Nc1nc2c(-c3ccc(S(=O)(=O)NCC4(N)CC4)c(S(N)(=O)=O)c3-c3nn[nH]n3)cccc2s1 [Example 149, 4-(2-aminobenzo[d]thiazol-4-yl)-N1-((1-aminocyclopropyl)methyl)-3-(2H-tetrazol-5-yl)benzene-1,2-disulfonamide] | 1.00 | 0.216 nM | 0.993 nM | 0.739 nM | 3.125 µM | 3.125 µM | 12.5 µM | 6.25 µM | 6.25 µM | – | – | – | – | – | – | – |
| Nc1nc2c(-c3ccc(S(=O)(=O)N[C@@H]4CCNC4)c(S(N)(=O)=O)c3-c3nnn[nH]3)cccc2s1 [Example 63, 4-(2-amino-1,3-benzothiazol-4-yl)-N1-[(3R)-pyrrolidin-3-yl]-3-(1H-tetrazol-5-yl)benzene-1,2-disulfonamide] | 0.50 | 0.0445 nM | 0.307 nM | 0.257 nM | 1.563 µM | 0.7813 µM | 1.563 µM | 1.563 µM | 1.563 µM | – | – | – | – | – | – | – |
| NCCn1nnc2c(-c3ccc(S(=O)(=O)N[C@@H]4CCNC4)c(S(N)(=O)=O)c3-c3nn[nH]n3)cccc21 [Example 289] | 2.00 | 0.249 nM | 1.22 nM | 0.104 nM | 0.7813 µM | 1.563 µM | – | – | – | 0.7813 µM | 1.563 µM | 1.563 µM | – | – | – | – |
| Nc1nc2c(-c3ccc(S(=O)(=O)NC[C@H]4CCCN4)c(S(N)(=O)=O)c3-c3nn[nH]n3)cccc2[nH]1 [Example 261, (R)-4-(2-amino-1H-benzo[d]imidazol-4-yl)-N1-(pyrrolidin-2-ylmethyl)-3-(2H-tetrazol-5-yl)benzene-1,2-disulfonamide] | 1.00 | 0.0691 nM | 0.648 nM | – | 0.7813 µM | 0.7813 µM | – | – | – | 0.1953 µM | 0.7813 µM | 0.7813 µM | – | – | – | 0.224 nM |
| NCCNS(=O)(=O)c1ccc(-c2cccc3[nH]c([C@H](N)CO)nc23)c(-c2nn[nH]n2)c1S(N)(=O)=O [Example 330, (S)-4-(2-(1-amino-2-hydroxyethyl)-1H-benzo[d]imidazol-4-yl)-N1-(2-aminoethyl)-3-(2H-tetrazol-5-yl)benzene-1,2-disulfonamide] | 1.00 | 0.294 nM | 2.76 nM | – | 1.563 µM | 1.563 µM | – | – | – | 3.125 µM | 3.125 µM | 1.563 µM | – | – | – | 0.308 nM |
